Source: patent US10502742B2, “Flourescent exomarker probes for hydrogen sulfide detection” (AMRITA VISHWA VIDYAPEETHAM, priority 2017, dated 2019)
Values belong to the molecule of their own block, whether it stands above or below them.

How the values were obtained:
[1] = reference standard value; cited from earlier work
[2] = Selectivity: fluorescence responses in the presence of biologically important analytes; conditions: Mito-HS 5 μM; PBS, 0.2% DMSO, pH 7.4, 37° C.; excitation 380 nm
Procedure: Fluorescence responses of Mito-HS (5 μM) in the presence of various biologically important analytes such as H2S, cysteine (Cys), H2O2, NaNO2, Cu(OAc)2, Zn(OAc)2, FeSO4, FeCl3, Na2CO3, GSH, and ascorbic acid (AA) NO, Na2S2O4 in aqueous solutions (in PBS, 0.2% DMSO, pH=7.4) at 37° C. were studied as shown in FIG. 5. Excitation wavelength was set at 380 nm and excitation and emission slit widths both set at 3 nm. Error bars were obtained from triplet experimental data. […] So, the experiment supported the proposed concept of using Mito-HS to track cellular H2S over other competing substances such as thiols.

[3] = Fluorescence response of Mito-HS to variable concentrations of Na2S (H2S) in PBS
Procedure: UV-Vis and fluorescence spectroscopy was studied and changes of Mito-HS was recorded in variable concentrations of Na2S (0-200 μM) in PBS buffer solution containing 0.2% of DMSO at physiological pH (pH 7.4) to study the performance of the probe in H2S (Na2S) environment as shown in FIG. 3A-C. In FIG. 3A, the UV-Vis absorption band at λab 370 nm gradually decreases with the appearance of a new absorption band at λab 395 nm in the presence of variable concentrations of H2S.

[4] = Time-dependent fluorescence of Mito-HS in the presence of H2S; conditions: H2S (20.0 eq.)
Procedure: The environment of biological entities in cellular milieu is temporal, henceforth, the response time of probe for an analyte is crucial. Thus, time-dependent fluorescence data at λmax 450 nm were recorded in the presence of H2S (20.0 eq.). […] The rate of reaction of Mito-HS with H2S was calculated to be 5.4×10^−3 s^−1.

MDA-MB-231 cells [5] = experiment: Fluorescence microscopy of endogenous H2S in cells; assay type: cell-based, Human
Procedure: (§1) Human cervical cancer cells (HeLa), breast cancer cells (MDA-MB-231), prostate cancer cells (DU 145) and 3T3-L1 fibroblast cells were cultured in DMEM high glucose media supplemented with 10% fetal bovine serum, 1% Penstrep, 0.2% Amphotericin B. The cells were grown overnight at 37° C. incubator with 5% CO2. HeLa, MDA-MB-231, DU 145, and 3T3-L1 cells were seeded at a density of 0.3×10^6 cells in 35 mm dish and kept overnight. The probe Mito-HS prepared in Example 1 was dissolved in 0.2% DMSO to make a stock concentration of 10 mM. The cells were treated with 5 μM of Mito-HS for 15 min. 300-550 nm excitation light was used to measure its fluorescence properties. Images were acquired using Zeiss Fluorescence Microscope (A1 Axiovert) with ×40 objective lens.
(§2) Fluorescence microscopic study was performed for Mito-HS treated and untreated cancer cells (HeLa, MDA-MB-231 and DU145 cells) and normal cell (3T3-L1 cells) by illuminating lights of 390 nm as excitation wavelength and monitoring the emission over 440-500 nm range. […] In contrast, Mito-HS pretreated normal cells were remained non-fluorescent under similar conditions even after an hour. The insufficient production of H2S in 3T3-L1 cells was responsible for their non-fluorescent images.
(§3) To assure that the fluorescence image of the Mito-HS treated cells were solely due to production of endogenous H2S instead of any other endogenous thiol-like entities such as GSH, cysteine and homocysteine, HeLa, MDA-MB-231 and DU145 cells were pretreated with a thiol-masking agent, here N-ethyl maleimide (NEM).

DU145 cells [6] = experiment: Fluorescence microscopy of endogenous H2S in cells; assay type: cell-based, Human
Procedure: as §1, §2, §3

HeLa cells [7] = experiment: Fluorescence microscopy of endogenous H2S in cells; assay type: cell-based, Human
Procedure: as §1, §2, §3

[8] = tested on: mitochondria of HeLa cells; experiment: Co-localization experiment with MitoSox Red; assay type: cell-based, Human
Procedure: (§4) In order to evaluate the mito-targeting nature of Triphenylphosphonium ion of Mito-HS, a co-localization experiment was carried out with MitoSox Red, which is a mitochondria targeting dye, to make a comparison study.

[9] = tested on: mitochondria of DU145 cells; experiment: Co-localization experiment with MitoSox Red; assay type: cell-based, Human
Procedure: as §4

[10] = tested on: mitochondria of MDA MB 231 cells; experiment: Co-localization experiment with MitoSox Red; assay type: cell-based, Human
Procedure: as §4

[11] = Determination of fluorescence quantum yield; assay type: physicochemical; conditions: PBS 10 mM, pH 7.4, quinine standard
Procedure: The fluorescence quantum yield of Mito-HS was determined in the presence and absence of H2S in PBS buffer solution of 10 mM concentration and in the physiological pH of 7.4 taking quinine (ΦX=0.542) as standard. The fluorescence quantum yield was calculated by the equation: ΦS=ΦX (ASFS/AXFX), where, AS and AX are the absorbance of the sample and the reference, respectively; at the same excitation wavelength, FS and FX are the corresponding relative integrated fluorescence intensities. The quantum yield for Mito-HS calculated to be 0.045 was increased to 0.479 due to formation of FL-1 in the presence of H2S.

3T3-L1 cells = experiment: Fluorescence microscopy of endogenous H2S in cells; assay type: cell-based; conditions: 3T3-L1 normal cells, similar conditions, even after an hour
Procedure: as §1, §2

[12] = Detection of H2S in blood serum by fluorescence spectroscopy; conditions: fetal bovine serum (0.45 mM albumin protein), 37° C.; ex 380 nm, em 450 nm
Procedure: Fluorescence spectroscopy was performed for Mito-HS in fetal bovine serum at 37° C. Excitation and emission wavelengths were set at 380 nm and 450 nm respectively and slit widths at 3 nm.

MDA-MB-231 cells [13] = experiment: In vitro cytotoxicity, MTT assay; assay type: cell-based, Human; conditions: MDA-MB-231, MTT, 48 h incubation
Procedure: as §1
(§5) Prior to the application of probe in vitro, cytotoxicity study was performed to check its biocompatibility. HeLa, MDA-MB-231 and DU145 cells were considered to assess the cytotoxicity of Mito-HS by conventional MTT assay. The cells were treated with Mito-HS and incubated for 48 h.

DU145 cells [14] = experiment: In vitro cytotoxicity, MTT assay; assay type: cell-based, Human; conditions: 48 h incubation
Procedure: as §1, §5

HeLa cells [15] = experiment: In vitro cytotoxicity, MTT assay; assay type: cell-based, Human; conditions: 48 h incubation
Procedure: as §1, §5

[16] = Physiological pH stability study by fluorescence spectrometry; assay type: physicochemical
Text: The stability and reactivity of Mito-HS toward H2S in various physiological pH was studied in fluorescence spectrometry as shown in FIG. 6.

Structure (SMILES): C=C[C@H]1C[N@@]2CC[C@H]1C[C@H]2[C@H](O)c1ccnc2ccc(OC)cc12 [quinine]
fluorescence quantum yield of standard (ΦX) [1]: 0.542

fluorescence quantum yield ([11]; absence of H2S): 0.045
fluorescence quantum yield ([11]; presence of H2S (formation of FL-1)): 0.479
pH range in which stable ([16]; in absence of H2S, fluorescence spectrometry): 4-9
Structure (SMILES): [N-]=[N+]=Nc1ccc2cc(C(=O)NCC[P+](c3ccccc3)(c3ccccc3)c3ccccc3)c(=O)oc2c1 [Mito-HS]
fluorescence change with analytes other than H2S [2]: none of the analytes showed considerable fluorescence change other than H2S
H2S concentration at fluorescence saturation point ([3]; H2S 0-200 μM added, λmax 450 nm): 200 µM
fluorescence intensity increase in the presence of H2S ([3]; H2S 200 μM, λmax 450 nm, PBS pH 7.4, 0.2% DMSO): ~43 fold
H2S concentration range detectable (physiological condition) ([3]; PBS pH 7.4, 0.2% DMSO): 10-600 μM
lower detection limit for H2S ([3]; calculated by applying regression equation): 24.3 nM
rate of reaction of Mito-HS with H2S ([4]; fluorescence at λmax 450 nm): 0.0054 s⁻¹
time at which fluorescence intensity plateaued ([4]; λmax 450 nm): > 40 min
cell fluorescence image (MDA-MB-231 cells [5]; MDA-MB-231, Mito-HS 5.0 μM, ex 390 nm, em 440-500 nm): strong fluorescence
cell fluorescence after pretreatment with thiol-masking agent NEM (MDA-MB-231 cells [5]; MDA-MB-231, NEM pretreated): equally fluorescent labeled
cell fluorescence image (DU145 cells [6]; DU145, Mito-HS 5.0 μM, ex 390 nm, em 440-500 nm): strong fluorescence
cell fluorescence after pretreatment with thiol-masking agent NEM (DU145 cells [6]; DU145, NEM pretreated): equally fluorescent labeled
cell fluorescence image (HeLa cells [7]; Mito-HS 5.0 μM, ex 390 nm, em 440-500 nm): strong fluorescence
cell fluorescence after pretreatment with thiol-masking agent NEM (HeLa cells [7]; NEM pretreated vs NEM untreated): equally fluorescent labeled
subcellular localization [8]: predominantly in mitochondria
subcellular localization [9]: predominantly in mitochondria
subcellular localization [10]: predominantly in mitochondria
cell fluorescence image (3T3-L1 cells): non-fluorescent
increase of fluorescence intensity in blood serum [12]: 30 fold
cytotoxicity (cell viability) (MDA-MB-231 cells [13]): did not show cytotoxic behavior
cytotoxicity (cell viability) (DU145 cells [14]): did not show cytotoxic behavior
cytotoxicity (cell viability) (HeLa cells [15]): did not show cytotoxic behavior
fluorescence intensity toward H2S at various pH ([16]; in H2S environment, pH 4-9): high fluorescence intensity was observed in H2S environment with sharp depreciation in lower pH range
